Measured values reported in US9943569B2, “Method for preventing or reducing postoperative pulmonary complications” (OSAKA UNIVERSITY, priority 2015, dated 2018).

System: patients undergoing esophagectomy
Assay: Laboratory tests, nutrition status and hormone assays, preoperative and POD7
Format: in vivo, human
Method: The primary endpoint of this study was SIRS duration. The secondary endpoints were postoperative complications, serum C-reactive protein (CRP) and IL-6 levels, time required to attain a positive nitrogen balance, and changes in body weight and body composition. Postoperative complications were defined as adverse events caused by surgery. Patients received an intravenous continuous infusion of ghrelin (0.5 μg/kg/h) or placebo (pure saline) for 5 days postoperatively. Ghrelin was diluted to a final volume of 48 mL with saline, and the solution was administered at a rate of 2 mL/h by using an infusion pump through a central venous catheter inserted into the right subclavian vein. The same amount of ghrelin was administered via intravenous infusion during the 5 days of treatment; the dose was calculated on the basis of body weight on the day before surgery. Patients in the placebo group received the corresponding infusion containing pure saline using same procedure.
Blood sampling was performed at the following 7 time points: before surgery; 2 hours after initiation of surgery (during thoracotomy); 4 hours after initiation of surgery (during laparotomy); and on PODs 1, 3, 7, and 10. Complete blood count was performed every day for at least 10 PODs. If the leukocyte count was not within the normal range on POD10, complete blood counts were performed daily until it was within the normal range for 3 consecutive days. SIRS was diagnosed according to the criteria proposed by the American College of Chest Physicians/Society of Critical Care Medicine Consensus Conference^32 and when 2 or more of the following criteria were present: (1) body temperature less than 36° C. or more than 38° C.; (2) heart rate more than 90 beats per minute; (3) tachypnea with more than 20 breaths per minute or an arterial partial pressure of carbon dioxide less than 32 mm Hg; and (4) white blood cell count less than 4000 cells/mm^3, >12,000 cells/mm^3, or an immature (band) form more than 10%. Postoperative complications were evaluated according to the Clavien-Dindo classification.^33 Grade I required no treatment, grade II required medical therapy, grade Ma required interventions but not general anesthesia, grade Mb required general anesthesia, grade IV represented life-threatening states that required intensive care, and grade V represented death.
Sampled blood was immediately transferred into a chilled glass tube containing disodium ethylenediaminetetraacetic acid for plasma sampling or a separating agent for serum sampling, and the samples were then centrifuged at 4° C. Plasma samples were mixed with a 10% volume of 1 N HCl and stored at −80° C. Serum samples were directly stored at −80° C. Sandwich-type enzyme immunoassay kits were used to measure levels of plasma active ghrelin, des-acyl ghrelin, and serum IL-6 according to the manufacturers' protocols (for ghrelin: Mitsubishi Kagaku Iatron, Inc, Tokyo, Japan; for IL-6: R&D Systems, Minneapolis, Minn.). Total plasma ghrelin levels were calculated as the active ghrelin level plus the des-acyl ghrelin level.^34 An Access 2 kit, a chemiluminescent enzyme immunoassay (Beckman Coulter, Inc, Brea, Calif.), was used to measure serum GH levels.

`CCCCCCCC(=O)OC[C@H](NC(=O)[C@H](CO)NC(=O)CN)C(=O)N[C@@H](Cc1ccccc1)C(=O)N[C@@H](CC(C)C)C(=O)N[C@@H](CO)C(=O)N1CCC[C@H]1C(=O)N[C@@H](CCC(=O)O)C(=O)N[C@@H](Cc1cnc[nH]1)C(=O)N[C@@H](CCC(N)=O)C(=O)N[C@@H](CCCNC(=N)N)C(=O)N[C@H](C(=O)N[C@@H](CCC(N)=O)C(=O)N[C@@H](CCC(N)=O)C(=O)N[C@@H](CCCNC(=N)N)C(=O)N[C@@H](CCCCN)C(=O)N[C@@H](CCC(=O)O)C(=O)N[C@@H](CO)C(=O)N[C@@H](CCCCN)C(=O)N[C@@H](CCCCN)C(=O)N1CCC[C@H]1C(=O)N1CCC[C@H]1C(=O)N[C@@H](C)C(=O)N[C@@H](CCCCN)C(=O)N[C@@H](CC(C)C)C(=O)N[C@@H](CCC(N)=O)C(=O)N1CCC[C@H]1C(=O)N[C@@H](CCCNC(=N)N)C(=O)O)C(C)C` [ghrelin] was tested, and the Alanine aminotransferase (Postoperative (POD7)) was 40.6 ± 24.6 IU/L, the Albumin (Postoperative (POD7)) was 2.99 ± 0.45 g/dL and the Asparate aminotransferase (Postoperative (POD7)) was 34.0 ± 15.9 IU/L. For the same compound, the Blood urea nitrogen (Postoperative (POD7)) was 19.3 ± 6.8 mg/dL, the Choline esterase (Postoperative (POD7)) was 154.1 ± 50.7 IU/L and the Creatinine (Postoperative (POD7)) was 0.77 ± 0.19. The Growth hormone (Postoperative (POD7)) was 1.08 ± 1.16 ng/mL, the Hemoglobin (Postoperative (POD7)) was 10.1 ± 1.3 g/dL and the Leukocytes (Postoperative (POD7)) was 9068 ± 2633 /mm. For the same compound, the Lymphocytes (Postoperative (POD7)) was 1380 ± 495 /mm, the Retinol binding protein (Postoperative (POD7)) was 3.63 ± 1.56 mg/dL and the Total bilirubin (Postoperative (POD7)) was 1.25 ± 0.80 mg/dL. The Total protein (Postoperative (POD7)) was 5.66 ± 0.70 g/dL, the Transferrin (Postoperative (POD7)) was 146.4 ± 35.3 mg/dL and the Transthyretin (Postoperative (POD7)) was 20.1 ± 6.7 mg/dL. It also gave an Alanine aminotransferase (Preoperative (baseline)) of 18.3 ± 14.1 IU/L, an Albumin (Preoperative (baseline)) of 3.78 ± 0.50 g/dL and an Asparate aminotransferase (Preoperative (baseline)) of 20.2 ± 7.2 IU/L. The Blood urea nitrogen (Preoperative (baseline)) was 15.1 ± 4.7 mg/dL, the Choline esterase (Preoperative (baseline)) was 263.5 ± 83.8 IU/L and the Creatinine (Preoperative (baseline)) was 0.88 ± 0.21. For the same compound, the Growth hormone (Preoperative (baseline)) was 0.51 ± 0.54 ng/mL, the Hemoglobin (Preoperative (baseline)) was 11.3 ± 1.5 g/dL and the Leukocytes (Preoperative (baseline)) was 5472 ± 1970 /mm. For the same compound, the Lymphocytes (Preoperative (baseline)) was 1644 ± 585 /mm, the Retinol binding protein (Preoperative (baseline)) was 4.86 ± 1.71 mg/dL and the Total bilirubin (Preoperative (baseline)) was 0.58 ± 0.20 mg/dL. The Total protein (Preoperative (baseline)) was 6.44 ± 0.59 g/dL, the Transferrin (Preoperative (baseline)) was 198.1 ± 30.8 mg/dL and the Transthyretin (Preoperative (baseline)) was 28.8 ± 9.1 mg/dL.
